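Cultured in 96-well plates, cells were exposed to test compound for 48 hours across five concentrations. TGI: concentration producing complete growth inhibition.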
Key:
Assay in all cases: growth of human tumour cells (NCI), 48 h
DLD-1 colon = tested on: DLD-1 colon
HOP-18 NSCLC = tested on: HOP-18 NSCLC
KM20L2 colon = tested on: KM20L2 colon
RXF-631 renal = tested on: RXF-631 renal
SNB-78 CNS = tested on: SNB-78 CNS
XF 498 CNS = tested on: XF 498 CNS

SMILES	TGI (DLD-1 colon)	TGI (HOP-18 NSCLC)	TGI (KM20L2 colon)	TGI (RXF-631 renal)	TGI (SNB-78 CNS)	TGI (XF 498 CNS)
OCC12C=CC(C1)c1ccccc12 (centres undefined)	> 100 µM	> 100 µM	> 100 µM	> 100 µM		
O=S(Cc1ccccc1)c1nc2ccccc2nc1-c1cccs1 (centres undefined)	24.6 µM	29.5 µM			56.2 µM	12.3 µM
CS(=O)(=O)C(C#N)c1nc2ccccc2nc1Cl (centres undefined)	> 100 µM				> 100 µM	> 100 µM
CC1(C)OCN(c2ccc(N3CCOCC3)cc2)Cn2c1nc1ccccc12	> 100 µM	> 100 µM	> 100 µM		> 100 µM	
CN(C)/C=C/C(=CC=[N+](C)C)/C=C/N(C)C	> 100 µM			> 100 µM	> 100 µM	> 100 µM
CCN1C[C@]2(C)CC[C@H](O)C34C1C(C[C@@H]32)[C@@]1(O)CC[C@H]2C[C@@H]4[C@@H]1[C@H]2O	> 100 µM	> 100 µM	> 100 µM		> 100 µM	
CCC1=CCN(c2cc(C)ccn2)OC1c1ccc(OC)cc1 (centres undefined)	> 100 µM		> 100 µM	> 100 µM		
COc1ccc2nc3cc(Cl)ccc3c(Sc3ccc([N+](=O)[O-])cc3C)c2c1	> 100 µM	> 100 µM	> 100 µM		> 100 µM	> 100 µM
Cc1ccc2c(ccc(/C=C/c3ccc(O)c4ncccc34)[n+]2C)c1	38.3 µM	26.4 µM	20.1 µM		27.5 µM	16.8 µM
CCC(CC)NC1=C(NC(C)=O)C(=O)c2ccccc2C1=O	> 50 µM		> 50 µM		> 50 µM	> 50 µM
CCOC1C(Br)Cn2c(=O)c3cc4ccccc4cc3c(=O)n2C1C (centres undefined)	> 100 µM		> 100 µM		> 100 µM	> 100 µM

— PubChem BioAssay (NCI)
